From patent publication US20190336496A1, “SELECTIVE BCL-2 INHIBITORS IN COMBINATION WITH AN ANTI-PD-1 OR AN ANTI-PD-L1 ANTIBODY FOR THE TREATMENT OF CANCERS” (AbbVie Inc., priority 2018, published 2019)

Assays:
[1] = test system: CD4 T-cells co-cultured with MoDCs; experiment: Mixed lymphocyte reaction (MLR) assay; format: cell-based, human; conditions: for CD3+ T cell numbers / production of IFNγ (secreted) / proportion of CD3+ T-cells that produce IFNγ: MLR, BCL-2 inhibitors at 1 μM
Method: Mixed Lymphocyte Reaction (MLR) assay was used to examine venetoclax effect on T-cell function in response to immune stimulation. Monocytic-derived dendritic cells (MoDCs) were generated from fresh human blood. PBMCs were isolated using a Ficoll gradient. The PBMCs were allowed to adhere for 2 hours. After 2 hours, cells in suspension were removed. Fresh AIM V™ medium (ThermoFisher cat. #12055091) supplemented with granulocyte-macrophage colony-stimulating factor (GM-CSF, 80 ng/mL) and IL-4 (50 ng/mL) was added to the culture. After 5 days, the MoDCs were stimulated with IL-1α and TNF-α (0.2 ng/mL each) for 48 hours to increase major histocompatibility complex class II molecules (MHCII) expression. These activated MoDCs were then co-cultured with CD4 T-cells (Biospecialty Corp.) at a ratio of 10:1 (T-cells:MoDCs) in a mixed lymphocyte reaction (MLR). The cells were treated with control IgG (Isotype) or anti-PD-1 antibody (nivolumab or ABBV-181 along with either dimethyl sulfoxide (DMSO) or BCL-2 inhibitors venetoclax (Compound (I)) or Compounds (II) or (III). Antibodies were added at 10 μg/mL and the compound concentrations of venetoclax were as indicated in FIG. 11. The MLR was cultured for 5 days, after which the cells were analyzed by flow cytometry using an LSRFortessa™ X-20 instrument (BD Biosciences) to determine cell number and functional cytokine (IFNγ) responses.

EMT6 tumors = experiment: EMT6 mouse mammary carcinoma syngeneic model; format: in vivo; conditions: for complete responses (CR): EMT6, groups of 10 mice
Method: All experiments were conducted in compliance with the National Institutes of Health Guide for Care and Use of Laboratory Animals guidelines in a facility accredited by the Association for the Assessment and Accreditation of Laboratory Animal Care (AAALAC). BALB/c, C57BL/6, CB6F1 (C57BL/6 bred with BALB/c) and SCID mice were obtained from Charles River (Wilmington, Mass.). SCID mice have severe combined immune deficiency (SCID) and are characterized by an absence of functional T- and B-cells.
EMT6, mouse mammary carcinoma and CT26, mouse colon carcinoma, cell lines were obtained from ATCC (Manassas, Va.). MC38, mouse colon carcinoma cell line was obtained from National Cancer Institute (NCI).
Compound (I),venetoclax, was formulated in 10% ethanol+30% PEG 400+60% Phosal® 50PG. Venetoclax was administered orally once a day for 14 days at 50 mg/kg/day.
1×10^5 CT26, EMT6 or MC38 cells were subcutaneously injected with Matrigel into the flanks of BALB/c, CB6F1 or C57BL/6 mice, respectively. Seven days later, mice were randomized to treatment groups of vehicle, venetoclax, anti-PD-1/PD-L1 or the combination of venetoclax and anti-PD-1/PD-L1. Tumor volume was determined via measurements of the length (L) and width (W) of the tumor with electronic calipers and the volume was calculated according to the following equation: V=L×W2/2 using Study Director Version 2.1.11 (Studylog Systems Inc., South San Francisco). Complete response (CR) was defined as reduction in tumor volume to ≤25 mm^3 over at least 3 successive measurements.

Row | Molecule | CD3+ T cell numbers [1] | production of IFNγ (secreted) [1] | proportion of CD3+ T-cells that produce IFNγ [1] | other results
1 | Cn1ccc2cc(N(C(=O)c3cc(-c4cc5c(cc4C(=O)N4Cc6ccccc6C[C@H]4CN4CCOCC4)OCO5)n4c3CCCC4)c3ccc(O)cc3)ccc21 [Compound (II)] | declined comparably | not antagonized | increase | –
2 | O=C(c1cc(-c2cc3c(cc2C(=O)N2Cc4ccccc4C[C@H]2CN2CCOCC2)OCO3)n2c1CCCC2)N(c1ccccc1)c1ccc(O)cc1 [Compound (III)] | declined comparably | not antagonized | increase | –
3 | nivolumab: anti-PD-1 antibody, heavy chain SEQ ID NO: 9, light chain SEQ ID NO: 10 | – | – | – | proportion of CD4+ T-cells that produce IFNγ ([1]; MLR 5 days, with isotype control or anti-PD-1 antibody): increased; number of CD4+ T-cells ([1]; MLR cultured 5 days, antibodies at 10 μg/mL): increased
4 | anti hu PD-L1 YW243.55.S70 [mu IgG2 a/k]: mouse anti-PD-L1 antibody, heavy chain SEQ ID NO: 5, light chain SEQ ID NO: 6 | – | – | – | complete responses (CR) (EMT6 tumors): 3; complete responses (CR) (EMT6 tumors; listed as anti-PD-L1 antibody): 3/10; tumor growth inhibition (TGI) (EMT6 tumors; EMT6 in CB6F1 mice, venetoclax 50 mg/kg/day orally 14 days, antibody 10 mg/kg IP every 4 days, 3 times, day 25): 89%
